Reference: patent publication US20260176320A1, “MODULATORS OF G-PROTEIN COUPLED RECEPTORS” (priority 2018, published 2026)
Like-named read-outs stand apart in the source and are kept apart here.

How the values were obtained:
[1] = biological target: GLP-1R (Homo sapiens, UniProt P43220); assay: HitHunter cAMP assay (GLP-1R); assay type: cell-based; details: cAMP; for Emax: read-out: (Emax) GLP-1R
In short: (§1)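 Duplicate 22-point, 2-fold agonist titrations applied to receptor-expressing suspension cells in IBMX-containing HBSS; 30 min RT stimulation. Read: luminescent cAMP immunocompetition after O/N dark incubation.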

[2] = biological target: T1, GIP-R (Homo sapiens, UniProt P48546); assay: HitHunter cAMP assay (GIP-R); assay type: cell-based; details: cAMP; for Emax at 1 µM: read-out: (Emax) GIP-R at 1 μM, Table 3; for Emax: read-out: (Emax) GIP-R
T1 sequence (P48546 22-466): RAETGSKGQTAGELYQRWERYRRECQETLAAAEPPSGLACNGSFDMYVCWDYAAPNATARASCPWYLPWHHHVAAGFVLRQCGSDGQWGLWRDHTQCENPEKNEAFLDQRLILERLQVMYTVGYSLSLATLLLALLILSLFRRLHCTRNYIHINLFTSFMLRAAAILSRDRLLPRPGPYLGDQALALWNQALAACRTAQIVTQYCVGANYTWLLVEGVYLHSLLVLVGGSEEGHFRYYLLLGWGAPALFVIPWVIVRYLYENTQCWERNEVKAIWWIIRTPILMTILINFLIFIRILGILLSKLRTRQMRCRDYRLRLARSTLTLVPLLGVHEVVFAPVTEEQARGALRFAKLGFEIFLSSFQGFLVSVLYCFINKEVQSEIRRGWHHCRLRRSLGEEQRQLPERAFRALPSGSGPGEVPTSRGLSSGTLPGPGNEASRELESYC
In short: as §1

[3] = Table 3, read-out: EC50 GLP-1R/nM
[4] = Table 3A, read-out: EC50 GLP-1R/nM
[5] = Table 3, read-out: EC50 GIP-R/nM
[6] = Table 3A, read-out: EC50 GIP-R/nM

GLP-1R, sequence (P43220 24-463): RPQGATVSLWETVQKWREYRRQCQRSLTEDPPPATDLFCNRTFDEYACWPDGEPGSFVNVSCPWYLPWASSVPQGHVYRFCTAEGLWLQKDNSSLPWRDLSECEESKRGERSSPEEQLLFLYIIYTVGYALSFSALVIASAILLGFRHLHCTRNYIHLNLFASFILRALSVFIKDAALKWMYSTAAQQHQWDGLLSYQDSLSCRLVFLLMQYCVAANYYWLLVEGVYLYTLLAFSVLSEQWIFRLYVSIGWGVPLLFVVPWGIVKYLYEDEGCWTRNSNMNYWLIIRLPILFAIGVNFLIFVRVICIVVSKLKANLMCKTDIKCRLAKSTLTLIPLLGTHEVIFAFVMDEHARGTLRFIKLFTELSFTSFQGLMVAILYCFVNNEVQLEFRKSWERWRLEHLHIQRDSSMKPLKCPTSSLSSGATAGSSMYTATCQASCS

SMILES	Emax ([1]; Table 3) [%]	EC50 [1, 3] [nM]	Emax ([1]; Table 3A) [%]	EC50 [1, 4] [nM]	EC50 [2, 5] [nM]	EC50 [2, 6] [nM]	Emax at 1 µM [2] [%]	EC50 ([1]; EC50 GLP-1R/nM, Table 3) [nM]	EC50 ([1]; EC50 GLP-1R/nM, Table 3A) [nM]	EC50 ([2]; EC50 GIP-R/nM, Table 3) [nM]	EC50 ([2]; EC50 GIP-R/nM, Table 3A) [nM]	Emax ([2]; Table 3) [%]	Emax ([2]; Table 3A) [%]
CC[C@H](C)[C@H](NC(=O)[C@H](CO)NC(=O)[C@H](Cc1ccc(O)cc1)NC(=O)[C@H](CC(=O)O)NC(=O)[C@H](CO)NC(=O)[C@@H](NC(=O)[C@H](Cc1ccccc1)NC(=O)[C@@H](NC(=O)CNC(=O)[C@H](CCC(=O)O)NC(=O)CC(C)CC(=O)NCCN1C(=O)CSC1=O)[C@@H](C)O)[C@@H](C)O)C(=O)N[C@@H](Cc1ccc(O)cc1)C(=O)N[C@@H](CC(C)C)C(=O)N[C@@H](CC(=O)O)C(=O)N[C@@H](CCCCN)C(=O)N[C@@H](CCC(N)=O)C(=O)N[C@@H](C)C(=O)N[C@@H](C)C(=O)NC(C)(C)C(=O)N[C@@H](CCC(=O)O)C(=O)N[C@@H](Cc1ccccc1)C(=O)N[C@H](C(=O)N[C@@H](CC(N)=O)C(=O)N[C@@H](Cc1c[nH]c2ccccc12)C(=O)N[C@@H](CC(C)C)C(=O)N[C@@H](CC(C)C)C(=O)N[C@@H](C)C(=O)NCC(=O)NCC(=O)N1CCC[C@H]1C(=O)N[C@@H](CO)C(=O)N[C@@H](CO)C(=O)NCC(=O)N[C@@H](C)C(=O)N1CCC[C@H]1C(=O)N1CCC[C@H]1C(=O)N1CCC[C@H]1C(=O)N[C@@H](CO)C(=O)N[C@@H](CCCCN)C(N)=O)C(C)C (mixture of isomers) [Compound 120]	91	1 to 10	91	1 to 10	> 1000	> 1000	6						
CCCCCCCCCCCCCCCC(=O)N[C@@H](CCC(=O)NCCCC[C@H](NC(=O)[C@H](CO)NC(=O)[C@@H]1CCCN1C(=O)[C@@H]1CCCN1C(=O)[C@@H]1CCCN1C(=O)[C@H](C)NC(=O)CNC(=O)[C@H](CO)NC(=O)[C@H](CO)NC(=O)[C@@H]1CCCN1C(=O)CNC(=O)CNC(=O)[C@H](C)NC(=O)[C@H](CC(C)C)NC(=O)[C@H](CC(C)C)NC(=O)[C@H](Cc1c[nH]c2ccccc12)NC(=O)[C@H](CC(N)=O)NC(=O)[C@@H](NC(=O)[C@H](Cc1ccccc1)NC(=O)[C@H](CCC(=O)O)NC(=O)C(C)(C)NC(=O)[C@H](C)NC(=O)[C@H](C)NC(=O)[C@H](CCC(N)=O)NC(=O)[C@H](CCCCN)NC(=O)[C@H](CC(=O)O)NC(=O)[C@H](CC(C)C)NC(=O)[C@H](Cc1ccc(O)cc1)NC(=O)[C@@H](NC(=O)[C@H](CO)NC(=O)[C@H](Cc1ccc(O)cc1)NC(=O)[C@H](CC(=O)O)NC(=O)[C@H](CO)NC(=O)[C@@H](NC(=O)[C@H](Cc1ccccc1)NC(=O)[C@@H](NC(=O)CNC(=O)[C@H](CCC(=O)O)NC(=O)CSCC(=O)NCCN1C(=O)CCC(c2ccccc2)C1=O)[C@@H](C)O)[C@@H](C)O)[C@@H](C)CC)C(C)C)C(N)=O)C(=O)O (mixture of isomers) [Compound 95]	84		84					10 to 100	10 to 100	1 to 10	10 to 100	20	20
CC[C@H](C)[C@H](NC(=O)[C@H](CO)NC(=O)[C@H](Cc1ccc(O)cc1)NC(=O)[C@H](CC(=O)O)NC(=O)[C@H](CO)NC(=O)[C@@H](NC(=O)[C@H](Cc1ccccc1)NC(=O)[C@@H](NC(=O)CNC(=O)[C@H](CCC(=O)O)NC(=O)CC(C)(C)CC(=O)NCCN1C(=O)CSC1=O)[C@@H](C)O)[C@@H](C)O)C(=O)N[C@@H](Cc1ccc(O)cc1)C(=O)N[C@@H](CC(C)C)C(=O)N[C@@H](CC(=O)O)C(=O)N[C@@H](CCCCN)C(=O)N[C@@H](CCC(N)=O)C(=O)N[C@@H](C)C(=O)N[C@@H](C)C(=O)NC(C)(C)C(=O)N[C@@H](CCC(=O)O)C(=O)N[C@@H](Cc1ccccc1)C(=O)N[C@H](C(=O)N[C@@H](CC(N)=O)C(=O)N[C@@H](Cc1c[nH]c2ccccc12)C(=O)N[C@@H](CC(C)C)C(=O)N[C@@H](CC(C)C)C(=O)N[C@@H](C)C(=O)NCC(=O)NCC(=O)N1CCC[C@H]1C(=O)N[C@@H](CO)C(=O)N[C@@H](CO)C(=O)NCC(=O)N[C@@H](C)C(=O)N1CCC[C@H]1C(=O)N1CCC[C@H]1C(=O)N1CCC[C@H]1C(=O)N[C@@H](CO)C(=O)N[C@@H](CCCCN)C(N)=O)C(C)C [Compound 122]	91	1 to 10	91	1 to 10	> 1000	> 1000	< 1						
CC[C@H](C)[C@H](NC(=O)[C@H](CO)NC(=O)[C@H](Cc1ccc(O)cc1)NC(=O)[C@H](CC(=O)O)NC(=O)[C@H](CO)NC(=O)[C@@H](NC(=O)[C@H](Cc1ccccc1)NC(=O)[C@@H](NC(=O)CNC(=O)[C@H](CCC(=O)O)NC(=O)CSCC(=O)NCCN1C(=O)CCc2cccnc21)[C@@H](C)O)[C@@H](C)O)C(=O)N[C@@H](Cc1ccc(O)cc1)C(=O)N[C@@H](CC(C)C)C(=O)N[C@@H](CC(=O)O)C(=O)N[C@@H](CCCCN)C(=O)N[C@@H](CCC(N)=O)C(=O)N[C@@H](C)C(=O)N[C@@H](C)C(=O)NC(C)(C)C(=O)N[C@@H](CCC(=O)O)C(=O)N[C@@H](Cc1ccccc1)C(=O)N[C@H](C(=O)N[C@@H](CC(N)=O)C(=O)N[C@@H](Cc1c[nH]c2ccccc12)C(=O)N[C@@H](CC(C)C)C(=O)N[C@@H](CC(C)C)C(=O)N[C@@H](C)C(=O)NCC(=O)NCC(=O)N1CCC[C@H]1C(=O)N[C@@H](CO)C(=O)N[C@@H](CO)C(=O)NCC(=O)N[C@@H](C)C(=O)N1CCC[C@H]1C(=O)N1CCC[C@H]1C(=O)N1CCC[C@H]1C(=O)N[C@@H](CO)C(=O)N[C@@H](CCCCN)C(N)=O)C(C)C [Compound 106]	95		95					10 to 100	10 to 100	10 to 100	10 to 100	37	37
CCCCCCCCCCCCCCCC(=O)NCCCC[C@H](NC(=O)[C@H](CO)NC(=O)[C@@H]1CCCN1C(=O)[C@@H]1CCCN1C(=O)[C@@H]1CCCN1C(=O)[C@H](C)NC(=O)CNC(=O)[C@H](CO)NC(=O)[C@H](CO)NC(=O)[C@@H]1CCCN1C(=O)CNC(=O)CNC(=O)[C@H](C)NC(=O)[C@H](CC(C)C)NC(=O)[C@H](CC(C)C)NC(=O)[C@H](Cc1c[nH]c2ccccc12)NC(=O)[C@H](CC(N)=O)NC(=O)[C@@H](NC(=O)[C@H](Cc1ccccc1)NC(=O)[C@H](CCC(=O)O)NC(=O)C(C)(C)NC(=O)[C@H](C)NC(=O)[C@H](C)NC(=O)[C@H](CCC(N)=O)NC(=O)[C@H](CCCCN)NC(=O)[C@H](CC(=O)O)NC(=O)[C@H](CC(C)C)NC(=O)[C@H](Cc1ccc(O)cc1)NC(=O)[C@@H](NC(=O)[C@H](CO)NC(=O)[C@H](Cc1ccc(O)cc1)NC(=O)[C@H](CC(=O)O)NC(=O)[C@H](CO)NC(=O)[C@@H](NC(=O)[C@H](Cc1ccccc1)NC(=O)[C@@H](NC(=O)CNC(=O)[C@H](CCC(=O)O)NC(=O)CSCC(=O)NCCN1C(=O)CSC1=O)[C@@H](C)O)[C@@H](C)O)[C@@H](C)CC)C(C)C)C(=O)O [Compound 56]	110	0.1 to 1	110	0.1 to 1	1 to 10	1 to 10						60	60
CCCCCCCCCCCCCCCC(=O)N[C@@H](CCC(=O)NCCCC[C@H](NC(=O)[C@H](C)NC(=O)[C@H](C)NC(=O)[C@H](CCC(N)=O)NC(=O)[C@H](CCCCN)NC(=O)[C@H](CC(=O)O)NC(=O)[C@H](CC(C)C)NC(=O)[C@H](Cc1ccc(O)cc1)NC(=O)[C@@H](NC(=O)[C@H](CO)NC(=O)[C@H](Cc1ccc(O)cc1)NC(=O)[C@H](CC(=O)O)NC(=O)[C@H](CO)NC(=O)[C@@H](NC(=O)[C@H](Cc1ccccc1)NC(=O)[C@@H](NC(=O)CNC(=O)[C@H](CCC(=O)O)NC(=O)CSCC(=O)NCCN1C(=O)CSC1=O)[C@@H](C)O)[C@@H](C)O)[C@@H](C)CC)C(=O)N[C@@H](CCC(=O)O)C(=O)N[C@@H](Cc1ccccc1)C(=O)N[C@H](C(=O)N[C@@H](CC(N)=O)C(=O)N[C@@H](Cc1c[nH]c2ccccc12)C(=O)N[C@@H](CC(C)C)C(=O)N[C@@H](CC(C)C)C(=O)N[C@@H](C)C(=O)NCC(=O)NCC(=O)N1CCC[C@H]1C(=O)N[C@@H](CO)C(=O)N[C@@H](CO)C(=O)NCC(=O)N[C@@H](C)C(=O)N1CCC[C@H]1C(=O)N1CCC[C@H]1C(=O)N1CCC[C@H]1C(=O)N[C@@H](CO)C(=O)N[C@@H](CCCCN)C(N)=O)C(C)C)C(=O)O [Compound 200]			89	10 to 100		100 to 1000							66
